Read-outs that look alike come from different tables or passages of the source.
Columns and labels:
[1] = cited from earlier work
[2] = septic shock patients, VASST trial, Nakada et al.; cited from earlier work
[3] = Table 1 overview of parameters, infusion rate 0.03 units/minute, TT vs AA/AT genotype patients; type: in vivo, human; conditions: for clearance / level at time molar: human, in vivo, 0.03 units/minute; for clearance: intravenous; for level at time molar: iv
[4] = Phase 1 open-label parallel-group PK study of IV vasopressin in healthy volunteers by LNPEP rs4869317 genotype; type: in vivo, human; conditions: for Css (Max) / Css (Min) / level at 1 h / clearance: plasma; for level at 1 h / clearance: both sexes, human, iv; for level at 1 h: 200 uU/kg/min; for clearance: 200 μU/kg/min
From the text: The primary objective of this study was to evaluate differences in plasma clearance of vasopressin following IV administration in subjects with the TT genotype (rs4869317) versus those with the AA/AT genotype of the LNPEP gene in healthy volunteers. The secondary objective of the study was to assess the safety and tolerability of vasopressin in healthy volunteers. This was a Phase 1, open-label, 2-arm, parallel group, PK study in healthy volunteers. Approximately 48 healthy male and female subjects were enrolled at a single center in the United States to achieve at least 19 evaluable subjects per genotype group. The study comprised a screening period, a treatment period, and a follow-up phone call.
Subjects were screened for general good health over a 28-day period. Screening evaluations included medical history, physical examination, vital sign measurement, 12-lead electrocardiogram (ECG), and clinical laboratory testing (hematology, serum chemistry, and urinalysis). In addition, subjects were advised of the diet and medication restrictions and agreed to conform to them.
As a part of screening, the LNPEP genotype (TT or AA/AT) of the subjects was determined. The target enrollment was 24 subjects with the SNP rs4869317 (TT genotype). As the control group, 24 subjects with the AA/AT genotype were approximately matched with respect to age (±5 years), sex, race, BMI (±5%), and creatinine clearance (±10 mL/min). An effort was made to enroll at least 4 female subjects in each genotype group. Subjects were matched during screening and confirmed at check-in on Day-2. Subjects were enrolled for participation in 2 genotype groups of a minimum size of 24 subjects per genotype group in order to meet a minimum of 19 evaluable subjects per genotype group.
A dose of 200 μU/kg/min vasopressin (VASOSTRICT®) was used for this healthy volunteer PK study. The dose roughly corresponds to 0.012 units/minute for a 60 kg individual. This value is approximately equal to the starting dose of 0.01 units/minute in the VASOSTRICT® prescribing information. Clearance in healthy volunteers (15 mL/min/kg) at the vasopressin dose of 200 μU/kg/minute planned for study is within this range. Blood samples for PK analysis were drawn at baseline and 5, 15, 30, and 60 minutes following infusion. If TT genotyped subjects cleared vasopressin at a faster rate, patients of this genotype may benefit from an altered dosing regimen.
Subjects who meet all inclusion and none of the exclusion criteria received vasopressin continuous IV infusion at a constant rate of 200 μU/kg/min for 60 minutes on Day 1. To minimize orthostatic hypotension, subjects remained supine throughout the duration of the infusion. Eligible subjects were admitted to the clinical unit on Day-2, i.e., two days prior to dosing, to ensure adequate hydration and to standardize sodium intake. Vasopressin levels were also be determined during this period. Subjects remained confined until completion of all study procedures. While in the clinical unit, subjects were fed a standard diet with a dietary sodium intake limited to 2300 mg per day and drank no less than 1.0 to 1.5 L of water per day in addition to usual consumed beverages.
Study drug was administered on the morning of Day 1 under standard fasting conditions (minimum of 10-hour overnight fast). Passive telemetry monitoring occurred during the infusion. One hour prior to dosing, each subject was given an oral water load of 20 mL/kg to be consumed within 30 minutes. Thereafter, a second 20 mL/kg volume of water was made available. Subjects continued to drink water at regular intervals through the next 90 minutes (end of the infusion). Subjects were asked to pass urine spontaneously within 15 minutes prior to the start of infusion. The fasting restriction continued until the end of the infusion.
Subjects remained in the clinical unit after the end of the infusion and were discharged the following day (Day 2). […]

[5] = cited from earlier work; remark: listed apart in the source
[6] = AA/AT (n=12) vs TT (n=12), 60 minute continuous IV infusion 200 μU/kg/min
[7] = AA/AT genotype healthy volunteers (12 subjects), 200 μU/kg/min continuous IV infusion for 60 minutes
[8] = TT compared with AA/AT genotype
[9] = TT genotype healthy volunteers (12 subjects), 200 μU/kg/min continuous IV infusion for 60 minutes

NC(=O)CC[C@@H]1NC(=O)[C@H](Cc2ccccc2)NC(=O)[C@H](Cc2ccc(O)cc2)NC(=O)[C@@H](N)CSSC[C@@H](C(=O)N2CCC[C@H]2C(=O)N[C@@H](CCCN=C(N)N)C(=O)NCC(N)=O)NC(=O)[C@H](CC(N)=O)NC1=O [vasopressin, Cyclo (1-6) L-Cysteinyl-L-Tyrosyl-L-Phenylalanyl-L-Glutaminyl-L-Asparaginyl-L-Cysteinyl-L-Prolyl-L-Arginyl-L-Glycinamide]
rates of serious adverse events in AA genotype patients (in words) ([1]; septic shock patients who received vasopressin, Anantasit et al.): significantly higher rates of serious adverse events | AVP blood levels, TT/TA vs AA genotype (in words) ([1]; septic shock patients, Anantasit et al. FIG. 2): statistically significant higher AVP blood levels | vasopressin clearance, TT vs AA or AT genotyped patients (in words) [2]: increase in vasopressin clearance | % change in the pharmacokinetic parameters in AA/AT genotype patients vs. TT genotype patients [3]: <33% | % increase in clearance in AA/AT genotype patients vs. TT genotype patients [3]: ≥46% | clearance ([3]; read-out: Clearance in AA/AT genotype patients): 28.7 mL/min/kg | clearance ([3]; read-out: Clearance in TT genotype patients): 19.7 mL/min/kg | level at time molar ([3]; read-out: Concentration at steady state in AA/AT genotype patients): 3.17 pM | level at time molar ([3]; read-out: Concentration at steady state in TT genotype patients): 4.7 pM | higher plasma clearance in AA/AT than TT rs4869317 genotype [4, 6]: 25.5% | lower steady state concentration in AA/AT than TT rs4869317 genotype [4, 6]: 21.42% | Css (Max) [4, 7]: 0.0414 ng/mL | Css (Min) [4, 7]: 0.0101 ng/mL | vasopressin clearance, TT vs AA/AT genotyped patients (in words) [4, 8]: lower vasopressin clearance | vasopressin plasma concentrations, TT vs AA/AT genotyped patients (in words) [4, 8]: higher vasopressin plasma concentrations | Css (Max) [4, 9]: 0.0861 ng/mL | Css (Min) [4, 9]: 0.0171 ng/mL | mean clearance in TT patients less than that of AA/AT patients ([4]; TT vs AA/AT genotype): about 20% | mean steady state plasma concentration in TT patients higher than that of AA/AT patients ([4]; TT vs AA/AT genotype): about 27.4% | level at 1 h ([4]; AA/AT genotype healthy volunteers (12 subjects), 200 μU/kg/min continuous IV infusion for 60 minutes, read-out: Css (Mean), concentration at steady state): 0.025 ng/mL | level at 1 h ([4]; AA/AT genotype healthy volunteers (12 subjects), 200 μU/kg/min continuous IV infusion for 60 minutes, read-out: Css (Median)): 0.0251 ng/mL | level at 1 h ([4]; AA/AT rs4869317 genotype (n = 12), 60 minute continuous IV infusion 200 μU/kg/min, read-out: Steady State Concentration at 60 minutes (Css)): 0.025 ng/mL | level at 1 h ([4]; TT genotype healthy volunteers (12 subjects), 200 μU/kg/min continuous IV infusion for 60 minutes, read-out: Css (Mean), concentration at steady state): 0.0319 ng/mL | level at 1 h ([4]; TT genotype healthy volunteers (12 subjects), 200 μU/kg/min continuous IV infusion for 60 minutes, read-out: Css (Median)): 0.0271 ng/mL | level at 1 h ([4]; TT rs4869317 genotype (n = 12), 60 minute continuous IV infusion 200 μU/kg/min, read-out: Steady State Concentration at 60 minutes (Css)): 0.0319 ng/mL | clearance ([4]; AA/AT genotype healthy volunteers (12 subjects), 200 μU/kg/min continuous IV infusion for 60 minutes, read-out: CL (Max)): 37.3 mL/min/kg | clearance ([4]; AA/AT genotype healthy volunteers (12 subjects), 200 μU/kg/min continuous IV infusion for 60 minutes, read-out: CL (Mean)): 17.4 mL/min/kg | clearance ([4]; AA/AT genotype healthy volunteers (12 subjects), 200 μU/kg/min continuous IV infusion for 60 minutes, read-out: CL (Median)): 15 mL/min/kg | clearance ([4]; AA/AT genotype healthy volunteers (12 subjects), 200 μU/kg/min continuous IV infusion for 60 minutes, read-out: CL (Min)): 9.1 mL/min/kg | clearance ([4]; AA/AT rs4869317 genotype (n = 12), 60 minute continuous IV infusion 200 μU/kg/min, read-out: Total Plasma Clearance (CL) Value): 17.4 mL/min/kg | clearance ([4]; TT genotype healthy volunteers (12 subjects), 200 μU/kg/min continuous IV infusion for 60 minutes, read-out: CL (Max)): 22 mL/min/kg | clearance ([4]; TT genotype healthy volunteers (12 subjects), 200 μU/kg/min continuous IV infusion for 60 minutes, read-out: CL (Mean)): 13.8 mL/min/kg | clearance ([4]; TT genotype healthy volunteers (12 subjects), 200 μU/kg/min continuous IV infusion for 60 minutes, read-out: CL (Median)): 14 mL/min/kg | clearance ([4]; TT genotype healthy volunteers (12 subjects), 200 μU/kg/min continuous IV infusion for 60 minutes, read-out: CL (Min)): 4.4 mL/min/kg | clearance ([4]; TT rs4869317 genotype (n = 12), 60 minute continuous IV infusion 200 μU/kg/min, read-out: Total Plasma Clearance (CL) Value): 13.8 mL/min/kg | dose excreted unchanged in urine ([5]; VASOSTRICT prescribing information 2019): about 6% | apparent half-life ([5]; VASOSTRICT prescribing information, at these levels): < 10 min | Clearance in healthy volunteers ([5]; vasopressin dose of 200 μU/kg/minute): 15 mL/min/kg

From patent publication US10920278B1, “Method to treat hypotension using vasopressin in certain genotypes” (Par Pharmaceutical, Inc., priority 2020, dated 2021)
